Reference: ChEMBL document CHEMBL1697731, “Cheminformatics analysis of assertions mined from literature that describe drug-induced liver injury in different species” (Chem Res Toxicol, 2010)

Experiments:
[1] = test system: Hepatotoxicity; assay: Literature-mined compound from Fourches et al multi-species drug-induced liver injury (DILI) dataset, effect in humans; conditions: human
[2] = test system: Hepatotoxicity; assay: Literature-mined compound from Fourches et al multi-species drug-induced liver injury (DILI) dataset, effect in non-rodents
[3] = test system: Hepatotoxicity; assay: Literature-mined compound from Fourches et al multi-species drug-induced liver injury (DILI) dataset, effect in rodents; conditions: rodentia

Structure (SMILES)	Hepatotoxicity [1]	Hepatotoxicity [2]	Hepatotoxicity [3]	Hepatotoxicity ([1]; Liver)	Hepatotoxicity ([2]; Liver)	Hepatotoxicity ([3]; Liver)
O=C1Nc2ccc(Cl)cc2[C@@](C#CC2CC2)(C(F)(F)F)O1 [EFAVIRENZ]	drug-induced liver injury reported	no drug-induced liver injury reported	drug-induced liver injury reported	–	–	–
NCCCC(N)(C(=O)O)C(F)F (stereo unspecified) [EFLORNITHINE]	no drug-induced liver injury reported	no drug-induced liver injury reported	drug-induced liver injury reported	–	–	–
CCCCCCCCCCCCS[C@H](C(=O)Nc1cc(C)c(O)c(C)c1C)c1ccccc1 [EFLUCIMIBE]	no drug-induced liver injury reported	drug-induced liver injury reported	no drug-induced liver injury reported	–	–	–
C[C@H](N[C@@H](CCc1ccccc1)C(=O)O)C(=O)N1CCC[C@H]1C(=O)O [ENALAPRILAT ANHYDROUS]	drug-induced liver injury reported	no drug-induced liver injury reported	no drug-induced liver injury reported	–	–	–
COc1ccc(C(=O)Nc2ccccc2CCC2CCCCN2C)cc1 (stereo unspecified) [ENCAINIDE]	drug-induced liver injury reported	no drug-induced liver injury reported	no drug-induced liver injury reported	–	–	–
CCn1cc(C(=O)O)c(=O)c2cc(F)c(N3CCNCC3)nc21 [ENOXACIN]	drug-induced liver injury reported	no drug-induced liver injury reported	drug-induced liver injury reported	–	–	–
CSc1ccc(C(=O)c2[nH]c(=O)[nH]c2C)cc1 [ENOXIMONE]	no drug-induced liver injury reported	no drug-induced liver injury reported	drug-induced liver injury reported	–	–	–
CC1(C)[C@@H](O)CC[C@]2(C)[C@H]3C(=O)C=C4[C@@H]5C[C@@](C)(C(=O)O)CC[C@]5(C)CC[C@@]4(C)[C@]3(C)CC[C@@H]12 [ENOXOLONE]	drug-induced liver injury reported	no drug-induced liver injury reported	drug-induced liver injury reported	–	–	–
CCN(CC)C(=O)/C(C#N)=C/c1cc(O)c(O)c([N+](=O)[O-])c1 [ENTACAPONE]	drug-induced liver injury reported	no drug-induced liver injury reported	drug-induced liver injury reported	–	–	–
CN[C@@H](C)[C@H](O)c1ccccc1 [EPHEDRINE]	drug-induced liver injury reported	no drug-induced liver injury reported	no drug-induced liver injury reported	–	–	–
CNC[C@H](O)c1ccc(O)c(O)c1 [EPINEPHRINE]	–	–	–	drug-induced liver injury reported	drug-induced liver injury reported	drug-induced liver injury reported
COc1cccc2c1C(=O)c1c(O)c3c(c(O)c1C2=O)C[C@@](O)(C(=O)CO)C[C@@H]3O[C@H]1C[C@H](N)[C@@H](O)[C@H](C)O1 [EPIRUBICIN]	no drug-induced liver injury reported	no drug-induced liver injury reported	drug-induced liver injury reported	–	–	–
CCCCC[C@H](O)/C=C/[C@@H]1[C@H]2C/C(=C/CCCC(=O)[O-])O[C@H]2C[C@H]1O.[Na+] [EPOPROSTENOL SODIUM]	no drug-induced liver injury reported	no drug-induced liver injury reported	drug-induced liver injury reported	–	–	–
O=C(O)CSCC(=O)NC1CCSC1=O (stereo unspecified) [ERDOSTEINE]	no drug-induced liver injury reported	no drug-induced liver injury reported	drug-induced liver injury reported	–	–	–
CN1C[C@H](C(=O)N[C@]2(C)O[C@@]3(O)[C@@H]4CCCN4C(=O)[C@H](Cc4ccccc4)N3C2=O)C=C2c3cccc4[nH]cc(c34)C[C@H]21 [ERGOTAMINE]	drug-induced liver injury reported	drug-induced liver injury reported	no drug-induced liver injury reported	–	–	–
CCC(=O)O[C@H]1[C@H](O[C@@H]2[C@@H](C)[C@H](O[C@H]3C[C@@](C)(OC)[C@@H](O)[C@H](C)O3)[C@@H](C)C(=O)O[C@H](CC)[C@@](C)(O)[C@H](O)[C@@H](C)C(=O)[C@H](C)C[C@@]2(C)O)O[C@H](C)C[C@@H]1N(C)C.CCCCCCCCCCCCOS(=O)(=O)O [ERYTHROMYCIN ESTOLATE]	drug-induced liver injury reported	no drug-induced liver injury reported	drug-induced liver injury reported	–	–	–
CCOC(=O)CCC(=O)O[C@H]1[C@H](O[C@@H]2[C@@H](C)[C@H](O[C@H]3C[C@@](C)(OC)[C@@H](O)[C@H](C)O3)[C@@H](C)C(=O)O[C@H](CC)[C@@](C)(O)[C@H](O)[C@@H](C)C(=O)[C@H](C)C[C@@]2(C)O)O[C@H](C)C[C@@H]1N(C)C [ERYTHROMYCIN ETHYLSUCCINATE]	drug-induced liver injury reported	no drug-induced liver injury reported	no drug-induced liver injury reported	–	–	–
CC[C@H]1OC(=O)[C@H](C)[C@@H](O[C@H]2C[C@@](C)(OC)[C@@H](O)[C@H](C)O2)[C@H](C)[C@@H](O[C@@H]2O[C@H](C)C[C@H](N(C)C)[C@H]2O)[C@](C)(O)C[C@@H](C)C(=O)[C@H](C)[C@@H](O)[C@]1(C)O.O=C(O)[C@H](O)[C@@H](O)[C@H](O[C@@H]1O[C@H](CO)[C@H](O)[C@H](O)[C@H]1O)[C@H](O)CO [ERYTHROMYCIN LACTOBIONATE]	drug-induced liver injury reported	no drug-induced liver injury reported	no drug-induced liver injury reported	–	–	–
CCCCCCCCCCCCCCCCCC(=O)O.CC[C@H]1OC(=O)[C@H](C)[C@@H](O[C@H]2C[C@@](C)(OC)[C@@H](O)[C@H](C)O2)[C@H](C)[C@@H](O[C@@H]2O[C@H](C)C[C@H](N(C)C)[C@H]2O)[C@](C)(O)C[C@@H](C)C(=O)[C@H](C)[C@@H](O)[C@]1(C)O [ERYTHROMYCIN STEARATE]	drug-induced liver injury reported	no drug-induced liver injury reported	no drug-induced liver injury reported	–	–	–
CC[C@H]1OC(=O)[C@H](C)[C@@H](O[C@H]2C[C@@](C)(OC)[C@@H](O)[C@H](C)O2)[C@H](C)[C@@H](O[C@@H]2O[C@H](C)C[C@H](N(C)C)[C@H]2O)[C@](C)(O)C[C@@H](C)C(=O)[C@H](C)[C@@H](O)[C@]1(C)O [ERYTHROMYCIN]	drug-induced liver injury reported	no drug-induced liver injury reported	drug-induced liver injury reported	–	–	–
COc1ccc2nc([S@@+]([O-])Cc3ncc(C)c(OC)c3C)[nH]c2c1 [ESOMEPRAZOLE]	drug-induced liver injury reported	no drug-induced liver injury reported	no drug-induced liver injury reported	–	–	–
Clc1ccc2c(c1)C(c1ccccc1)=NCc1nncn1-2 [ESTAZOLAM]	no drug-induced liver injury reported	no drug-induced liver injury reported	drug-induced liver injury reported	–	–	–
